This is an account of results in ChEMBL document CHEMBL2040782 (Eur J Med Chem, 2012).

Data set [1] deals with Rattus norvegicus. As to the kind of experiment: Wake promoting activity in EEG/EMG Sprague-Dawley rat model assessed as slow wave sleep and rapid eye movement sleep time at 100 mg/kg, ip measured up to 3 hrs (reference value: 65 +/- 9 mins). The data set is classed as functional. Particulars: route intraperitoneal.
Data set [2] has as its target T1, Sodium-dependent dopamine transporter (Rattus norvegicus, UniProt P23977). As to the kind of experiment: Inhibition of rat DAT-mediated dopamine reuptake.
For data set [3], the target named is Cytochrome P450 3A5 (Homo sapiens, UniProt P20815). In words: Inhibition of CYP3A5. Format: ADME.
The target in data set [4] is Sodium-dependent serotonin transporter (Rattus norvegicus, UniProt P31652). In words: Inhibition of rat SERT-mediated serotonin reuptake.
Data set [5] deals with Cytochrome P450 3A4 (Homo sapiens, UniProt P08684). In words: Inhibition of CYP3A4. Format: ADME.
Data set [6] concerns the target T2, Cytochrome P450 1A2 (Homo sapiens, UniProt P05177).
T2 sequence (P05177 whole entry): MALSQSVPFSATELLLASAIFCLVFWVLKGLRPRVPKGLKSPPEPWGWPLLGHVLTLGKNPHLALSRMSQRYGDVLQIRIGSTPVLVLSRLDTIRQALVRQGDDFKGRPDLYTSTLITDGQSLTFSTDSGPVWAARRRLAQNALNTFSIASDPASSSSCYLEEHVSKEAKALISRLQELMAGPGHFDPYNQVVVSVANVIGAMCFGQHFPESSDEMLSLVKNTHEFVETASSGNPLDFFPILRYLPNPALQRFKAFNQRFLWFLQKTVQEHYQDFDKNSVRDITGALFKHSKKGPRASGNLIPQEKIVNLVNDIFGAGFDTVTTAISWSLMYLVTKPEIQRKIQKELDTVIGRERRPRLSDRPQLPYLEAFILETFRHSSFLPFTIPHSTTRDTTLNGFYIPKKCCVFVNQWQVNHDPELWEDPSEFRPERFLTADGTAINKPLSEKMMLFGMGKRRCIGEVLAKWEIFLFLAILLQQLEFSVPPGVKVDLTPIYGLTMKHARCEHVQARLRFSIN
As to the kind of experiment: (§1) Inhibition of CYP1A2 ( at 100 uM). Format: ADME. Particulars: 100 µM.

Data set [7] concerns the target T3, Cytochrome P450 1A1 (Homo sapiens, UniProt P04798).
T3 sequence (P04798 whole entry): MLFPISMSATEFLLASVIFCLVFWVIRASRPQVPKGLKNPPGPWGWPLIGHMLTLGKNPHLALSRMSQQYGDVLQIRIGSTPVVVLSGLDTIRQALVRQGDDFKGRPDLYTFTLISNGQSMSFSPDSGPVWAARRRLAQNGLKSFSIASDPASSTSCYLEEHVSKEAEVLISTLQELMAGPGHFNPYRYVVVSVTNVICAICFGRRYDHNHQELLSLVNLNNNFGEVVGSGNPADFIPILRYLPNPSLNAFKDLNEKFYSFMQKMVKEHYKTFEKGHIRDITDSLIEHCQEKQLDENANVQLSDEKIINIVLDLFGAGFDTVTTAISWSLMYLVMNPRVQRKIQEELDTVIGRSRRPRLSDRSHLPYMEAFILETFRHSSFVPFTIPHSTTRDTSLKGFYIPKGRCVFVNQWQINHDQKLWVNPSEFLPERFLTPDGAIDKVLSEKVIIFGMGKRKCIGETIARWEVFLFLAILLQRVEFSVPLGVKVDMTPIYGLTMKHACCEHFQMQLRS
In words: (§2) Inhibition of CYP1A1 ( at 100 uM). The data set is classed as ADME. As to conditions: 100 µM.

For data set [8], the target named is T1, Sodium-dependent dopamine transporter. In words: Inhibition of rat DAT.
Data set [9] has as its target Cytochrome P450 2C19 (Homo sapiens, UniProt P33261). As to the kind of experiment: Inhibition of CYP2C19. The data set is classed as ADME.
Data set [10] deals with Transporter (Rattus norvegicus, UniProt Q63380). As to the kind of experiment: Inhibition of rat NET-mediated norepinephrine reuptake.
The target in data set [11] is Cytochrome P450 2D6 (Homo sapiens, UniProt P10635). In words: Inhibition of CYP2D6. Format: ADME.
In data set [12] the target is Transporter (Rattus norvegicus) (UniProt Q63380). As to conditions: 10 uM.
Description: Inhibition of rat NET at 10 uM
In data set [13] the target is Sodium-dependent serotonin transporter (Rattus norvegicus) (UniProt P31652). In words: Inhibition of rat SERT at 10 uM.
In data set [14] the target is T4, CYP1A2 (Homo sapiens, UniProt P05177).
T4 sequence (P05177 whole entry): T2 sequence (P05177 whole entry)
The description is as §1. The data set is classed as ADME.

In data set [15] the target is Cytochrome P450 2C9 (Homo sapiens, UniProt P11712). As to the kind of experiment: Inhibition of CYP2C9. The data set is classed as ADME.
Data set [16] deals with T5, CYP1A1 (Homo sapiens, UniProt P04798).
T5 sequence (P04798 whole entry): T3 sequence (P04798 whole entry)
The description is as §2. Format: ADME.

The target in data set [17] is CYP3A5 (Homo sapiens, UniProt P20815). As to the kind of experiment: Inhibition of CYP3A5 at 10 uM. The data set is classed as ADME.
In data set [18] the target is CYP2D6 (Homo sapiens, UniProt P10635). As to the kind of experiment: Inhibition of CYP2D6 at 10 uM. The data set is classed as ADME.
The target of data set [19] is CYP3A4 (Homo sapiens, UniProt P08684). As to the kind of experiment: Inhibition of CYP3A4 at 10 uM. Format: ADME.

SMILES strings stand for the structures.

T1 sequence (P23977 whole entry): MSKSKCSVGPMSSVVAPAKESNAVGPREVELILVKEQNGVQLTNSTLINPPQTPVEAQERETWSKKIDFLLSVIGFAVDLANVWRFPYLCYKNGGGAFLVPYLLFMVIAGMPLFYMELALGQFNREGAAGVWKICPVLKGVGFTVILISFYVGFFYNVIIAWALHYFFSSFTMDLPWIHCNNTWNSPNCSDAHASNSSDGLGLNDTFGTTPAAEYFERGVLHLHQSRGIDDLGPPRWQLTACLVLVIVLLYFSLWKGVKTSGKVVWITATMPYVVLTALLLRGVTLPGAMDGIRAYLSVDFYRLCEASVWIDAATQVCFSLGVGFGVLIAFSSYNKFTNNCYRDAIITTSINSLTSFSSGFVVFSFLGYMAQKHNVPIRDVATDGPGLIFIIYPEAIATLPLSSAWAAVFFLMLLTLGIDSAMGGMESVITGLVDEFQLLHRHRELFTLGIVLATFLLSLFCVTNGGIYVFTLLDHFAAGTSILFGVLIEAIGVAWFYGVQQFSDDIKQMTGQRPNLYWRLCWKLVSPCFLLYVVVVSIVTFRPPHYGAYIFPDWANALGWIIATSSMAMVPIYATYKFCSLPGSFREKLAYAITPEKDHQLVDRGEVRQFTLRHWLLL
Chain of Transporter (Rattus norvegicus) (Q63380 as listed by the source): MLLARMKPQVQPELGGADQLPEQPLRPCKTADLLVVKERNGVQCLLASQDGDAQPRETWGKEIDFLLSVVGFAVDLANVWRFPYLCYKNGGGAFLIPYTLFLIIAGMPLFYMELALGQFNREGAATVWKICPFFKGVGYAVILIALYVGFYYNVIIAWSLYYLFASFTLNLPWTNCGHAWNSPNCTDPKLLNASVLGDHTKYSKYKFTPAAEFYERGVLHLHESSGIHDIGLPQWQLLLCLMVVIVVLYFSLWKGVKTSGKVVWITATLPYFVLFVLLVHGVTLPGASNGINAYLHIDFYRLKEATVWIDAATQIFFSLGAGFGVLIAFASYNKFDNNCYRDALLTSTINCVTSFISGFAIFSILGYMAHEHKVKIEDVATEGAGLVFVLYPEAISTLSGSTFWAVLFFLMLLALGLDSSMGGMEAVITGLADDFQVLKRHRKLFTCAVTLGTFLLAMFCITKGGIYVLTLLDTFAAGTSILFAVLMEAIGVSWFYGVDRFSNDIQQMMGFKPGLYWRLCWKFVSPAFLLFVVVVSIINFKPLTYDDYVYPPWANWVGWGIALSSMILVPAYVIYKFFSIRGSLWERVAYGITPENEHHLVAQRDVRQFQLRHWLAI
Chain of Transporter (Q63380 whole entry): as the sequence (Q63380 as listed by the source) above
Chain of Cytochrome P450 2C19 (P33261 whole entry): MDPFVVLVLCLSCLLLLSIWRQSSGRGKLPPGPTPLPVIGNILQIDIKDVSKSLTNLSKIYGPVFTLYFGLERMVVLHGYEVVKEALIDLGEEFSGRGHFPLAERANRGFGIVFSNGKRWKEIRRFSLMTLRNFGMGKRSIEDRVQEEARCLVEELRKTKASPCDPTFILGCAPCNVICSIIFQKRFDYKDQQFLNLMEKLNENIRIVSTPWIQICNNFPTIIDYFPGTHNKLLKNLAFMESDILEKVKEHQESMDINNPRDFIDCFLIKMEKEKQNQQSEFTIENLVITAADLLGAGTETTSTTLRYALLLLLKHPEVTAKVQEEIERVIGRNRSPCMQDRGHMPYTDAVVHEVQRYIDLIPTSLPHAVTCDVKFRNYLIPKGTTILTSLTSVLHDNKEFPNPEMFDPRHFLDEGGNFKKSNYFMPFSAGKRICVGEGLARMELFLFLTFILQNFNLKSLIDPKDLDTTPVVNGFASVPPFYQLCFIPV
Chain of Cytochrome P450 3A5 (P20815 whole entry): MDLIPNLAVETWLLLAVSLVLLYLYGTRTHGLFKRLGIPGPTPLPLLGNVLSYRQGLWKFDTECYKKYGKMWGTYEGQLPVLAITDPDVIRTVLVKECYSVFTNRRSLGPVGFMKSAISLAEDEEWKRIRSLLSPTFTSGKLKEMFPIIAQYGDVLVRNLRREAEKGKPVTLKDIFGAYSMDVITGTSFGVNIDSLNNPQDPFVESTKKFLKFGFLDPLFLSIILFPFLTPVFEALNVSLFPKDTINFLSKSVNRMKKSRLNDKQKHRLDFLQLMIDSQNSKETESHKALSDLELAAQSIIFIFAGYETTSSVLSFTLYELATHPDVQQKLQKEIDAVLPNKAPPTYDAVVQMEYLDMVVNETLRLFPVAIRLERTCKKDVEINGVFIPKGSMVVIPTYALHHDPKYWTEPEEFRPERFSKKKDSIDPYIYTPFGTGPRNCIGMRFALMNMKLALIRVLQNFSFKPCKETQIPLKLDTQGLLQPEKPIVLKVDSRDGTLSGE
Chain of Sodium-dependent serotonin transporter (Rattus norvegicus) (P31652 whole entry): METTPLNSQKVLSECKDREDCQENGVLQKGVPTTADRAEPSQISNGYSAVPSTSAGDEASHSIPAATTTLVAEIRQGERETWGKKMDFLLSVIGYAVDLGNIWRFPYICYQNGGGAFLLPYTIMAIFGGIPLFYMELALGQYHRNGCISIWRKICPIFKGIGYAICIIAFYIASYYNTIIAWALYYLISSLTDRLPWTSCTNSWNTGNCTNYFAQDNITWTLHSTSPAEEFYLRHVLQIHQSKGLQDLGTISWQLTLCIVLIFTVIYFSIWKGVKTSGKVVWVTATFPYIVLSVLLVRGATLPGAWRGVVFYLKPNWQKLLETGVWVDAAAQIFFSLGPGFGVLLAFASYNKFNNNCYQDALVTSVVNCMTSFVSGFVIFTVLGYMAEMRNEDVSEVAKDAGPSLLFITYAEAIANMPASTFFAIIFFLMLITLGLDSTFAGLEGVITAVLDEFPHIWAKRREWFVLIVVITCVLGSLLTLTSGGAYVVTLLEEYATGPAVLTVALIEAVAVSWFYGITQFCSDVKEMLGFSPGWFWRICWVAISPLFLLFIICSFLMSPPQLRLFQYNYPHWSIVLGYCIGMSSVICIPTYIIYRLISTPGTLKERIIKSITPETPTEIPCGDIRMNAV
Chain of Sodium-dependent serotonin transporter (P31652 whole entry): as above
Chain of Cytochrome P450 3A4 (P08684 whole entry): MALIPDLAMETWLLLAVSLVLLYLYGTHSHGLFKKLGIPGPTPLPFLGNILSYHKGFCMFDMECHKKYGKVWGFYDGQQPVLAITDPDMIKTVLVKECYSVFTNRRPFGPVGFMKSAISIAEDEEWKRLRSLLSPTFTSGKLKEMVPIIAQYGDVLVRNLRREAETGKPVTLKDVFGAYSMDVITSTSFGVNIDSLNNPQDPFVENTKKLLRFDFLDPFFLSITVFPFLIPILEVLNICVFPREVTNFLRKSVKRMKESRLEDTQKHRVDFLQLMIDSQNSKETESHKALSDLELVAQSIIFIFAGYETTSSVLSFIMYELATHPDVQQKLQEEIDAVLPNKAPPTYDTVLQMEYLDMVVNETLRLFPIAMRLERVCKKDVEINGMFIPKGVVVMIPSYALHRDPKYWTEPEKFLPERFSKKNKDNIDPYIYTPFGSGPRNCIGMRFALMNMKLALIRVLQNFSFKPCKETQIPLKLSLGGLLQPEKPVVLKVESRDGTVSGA
Chain of Cytochrome P450 2D6 (P10635 whole entry): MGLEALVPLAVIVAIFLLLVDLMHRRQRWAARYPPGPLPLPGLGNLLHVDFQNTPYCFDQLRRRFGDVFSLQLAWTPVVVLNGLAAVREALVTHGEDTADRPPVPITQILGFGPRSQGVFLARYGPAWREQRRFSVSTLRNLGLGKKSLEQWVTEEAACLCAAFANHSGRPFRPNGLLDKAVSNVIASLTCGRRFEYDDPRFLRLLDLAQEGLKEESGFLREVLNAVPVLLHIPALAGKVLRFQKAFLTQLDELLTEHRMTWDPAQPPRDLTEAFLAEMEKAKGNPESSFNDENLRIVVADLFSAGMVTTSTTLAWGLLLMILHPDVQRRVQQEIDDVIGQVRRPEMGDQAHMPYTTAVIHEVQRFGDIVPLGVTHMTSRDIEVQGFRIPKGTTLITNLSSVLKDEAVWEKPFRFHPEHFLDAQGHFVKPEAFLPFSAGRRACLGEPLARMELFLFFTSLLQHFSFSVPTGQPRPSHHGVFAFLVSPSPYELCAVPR
Chain of Cytochrome P450 2C9 (P11712 whole entry): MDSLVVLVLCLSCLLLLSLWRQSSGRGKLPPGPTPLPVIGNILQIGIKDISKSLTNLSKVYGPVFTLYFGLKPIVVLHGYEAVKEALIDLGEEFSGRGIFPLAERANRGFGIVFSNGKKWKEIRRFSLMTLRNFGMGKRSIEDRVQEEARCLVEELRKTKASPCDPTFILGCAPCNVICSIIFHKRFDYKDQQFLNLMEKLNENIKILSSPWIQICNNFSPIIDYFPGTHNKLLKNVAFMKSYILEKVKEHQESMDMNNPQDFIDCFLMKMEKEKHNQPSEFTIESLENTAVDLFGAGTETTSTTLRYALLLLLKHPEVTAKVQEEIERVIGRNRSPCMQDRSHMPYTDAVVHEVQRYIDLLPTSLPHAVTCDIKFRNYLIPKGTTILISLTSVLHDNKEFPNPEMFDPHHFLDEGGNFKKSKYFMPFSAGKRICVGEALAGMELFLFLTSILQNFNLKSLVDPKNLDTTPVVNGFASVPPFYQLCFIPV

Consider `NC(=O)C[S+]([O-])Cc1ccccc1Oc1ccc(Cl)c(Cl)c1` (racemic), for which, in data set [1] (100 mg/kg), the Time is 180 min.
With `NC(=O)C[S+]([O-])Cc1ccccc1Oc1ccc(Cl)c(Cl)c1` (single isomer, unassigned; (+)) [listing 1 of 2 here], the half-inhibitory concentration (IC50) in data set [2] was 1.1 µM; in data set [3], 32 µM; in [4], 33 µM; in [5] it was 32 µM; in data set [8] it was 0.9 µM; in [9], 20 µM. Further, the IC50 in data set [10] came to 3.1 µM; in data set [11], 89 µM. The Time in [1] (100 mg/kg) stood at 167 min. Further, the “inhibition (INH)” value in data set [6] and in data set [7] was 18% throughout.
Consider `NC(=O)C[S+]([O-])Cc1ccccc1Oc1ccc(F)cc1` (racemic), for which the Time in data set [1] was 123 min.
In the case of `NC(=O)C[S+]([O-])Cc1ccccc1Oc1ccc(Cl)c(Cl)c1` (single isomer, unassigned; (-)) [listing 1 of 2 here], the inhibition was determined as 48% in [12] and 30% in data set [13].
In the case of `NC(=O)C[S+]([O-])Cc1ccc(Oc2ccc(Cl)c(Cl)c2)cc1` (stereo unspecified), the Time in data set [1] came to 88 min.
In the case of `NC(=O)C[S+]([O-])Cc1ccccc1Oc1cccc(Cl)c1Cl` (racemic), the Time in [1] is 120 min.
As for `NC(=O)C[S+]([O-])Cc1ccccc1Oc1ccc(Cl)c(Cl)c1` (single isomer, unassigned; (+)) [listing 2 of 2 here], the inhibition in [12] came out at 39%; in data set [13], 24%.
Regarding `NC(=O)C[S+]([O-])Cc1ccccc1Oc1ccc2ccccc2c1` (racemic), the Time in data set [1] worked out at 131 min.
Turning to `NC(=O)C[S+]([O-])Cc1ccccc1Oc1cc(Cl)cc(Cl)c1` (racemic), the Time in data set [1] amounted to 117 min.
On to `NC(=O)C[S+]([O-])Cc1ccccc1Oc1ccc(Cl)cc1Cl` (racemic), for which the Time in [1] turned out to be 74 min.
Turning to `NC(=O)C[S+]([O-])Cc1ccccc1Oc1ccc(Cl)c(Cl)c1` (single isomer, unassigned; (-)) [listing 2 of 2 here], the IC50 amounted to 1.1 µM in data set [2]; 40 µM in data set [3]; 31 µM in data set [4]; 40 µM in [5]; 216 µM in [15]; 0.2 µM in [8]. Moreover, the figures for the half-maximal inhibitory concentration (IC50) in [9], in [10] and in [11] were 30 µM, 1.3 µM and 106 µM, respectively. The Time in [1] (100 mg/kg) was determined as 168 min. Besides, the inhibition at 100 µM in data set [14] and in [16] was 10% throughout.
For `NC(=O)C[S+]([O-])Cc1ccccc1Oc1ccc(F)c(Cl)c1` (racemic), the Time in [1] turned out to be 160 min.
In the case of `NC(=O)C[S+]([O-])Cc1ccccc1Oc1ccc(Cl)c(F)c1` (racemic), the Time in data set [1] came out at 176 min.
Turning to `NC(=O)C[S+]([O-])C(c1ccccc1)c1ccccc1` (stereo unspecified) [MODAFINIL], the Time in data set [1] is given as 117 min. Also, the inhibition at 10 µM in data set [17], in data set [18] and in data set [19] was less than 10% throughout.
Take `NC(=O)C[S+]([O-])Cc1ccccc1Oc1ccc(Cl)cc1` (racemic): the Time in data set [1] is listed as 165 min.

For orientation: IC50 means the concentration that inhibits the measured activity by half. Low readings indicate higher potency, high ones lower potency. For orientation: inhibition means the share of the control response that was lost under treatment. High values mean a strong effect, low ones a weak effect.
